Results published in PubChem BioAssay AID1199 (EPA DSSTox, 2008).
Activity calls are given as the source filed them.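 How the source made its calls: active means a tumour-causing dose and a tumour site recorded for mice in at least one sex group; inconclusive means only government mouse studies exist and were judged inadequate; inactive means mouse studies exist but none gave tumours.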

The molecules below were run on mouse carcinogenicity bioassay, TD50 from CPDB (assay: DSSTox (CPDBAS) Carcinogenic Potency Database Summary Mouse Bioassay Results). Settings: not given.
Method in brief: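 Values are TD50 carcinogenic potencies from mouse chronic bioassays, taking the most positive result for each sex-species. Sources are published literature and NCI/NTP studies; target sites reflect author-reported positive findings.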
For Nc1cccc2ccccc12, the Potency was 0.47 mmol/kg/day.
For Nc1ccc(Oc2ccc(N)c(N)c2)cc1, the Potency was 0.0618 mmol/kg/day.

Same assay, conditions: TD50_Mouse_Note: TD50 is harmonic mean of more than one positive test; TD50_Mouse_mmol was not calculated for this mixture, but Activiity; TargetSites_Mouse_Female: liver
CC(C)CCCCCCOC(=O)c1ccccc1C(=O)OCCCCCCC(C)C was tested, and the outcome was “active; liver”.

Same assay, conditions: TD50_Mouse_Note: TD50 is harmonic mean of more than one positive test; TargetSites_Mouse_Female: adrenal gland; liver
With c1ccoc1 the Potency was 0.04 mmol/kg/day.

Same assay, conditions: TD50_Mouse_Note: TD50 is harmonic mean of more than one positive test; TargetSites_Mouse_Female: all tumor bearing animals
O=S(=O)(O)NC1CCCCC1 showed a Potency of 3.31 mmol/kg/day.

Same assay, conditions: TD50_Mouse_Note: TD50 is harmonic mean of more than one positive test; TargetSites_Mouse_Female: esophagus; stomach
O=[N+]([O-])c1ccc(-c2cnc3ccccn23)o1 was tested, and the Potency was 0.118 mmol/kg/day.

Same assay, conditions: TD50_Mouse_Note: TD50 is harmonic mean of more than one positive test; TargetSites_Mouse_Female: hematopoietic system; liver
Molecule Nc1ccc2c(c1)C(=O)c1ccccc1C2=O has a Potency of 5.33 mmol/kg/day.

Same assay, conditions: TD50_Mouse_Note: TD50 is harmonic mean of more than one positive test; TargetSites_Mouse_Female: liver
In the case of CC(=O)Nc1ccc(O)cc1, the Potency is reported as 10.7 mmol/kg/day.
Molecule C=CCc1ccc(OC)c(OC)c1 has a Potency of 0.108 mmol/kg/day.
Work on CNc1ccc(N(CCO)CCO)cc1[N+](=O)[O-] yielded a Potency of 0.308 mmol/kg/day.
Molecule O=C1C2(Cl)C3(Cl)C4(Cl)C(Cl)(Cl)C5(Cl)C3(Cl)C1(Cl)C5(Cl)C24Cl (stereo not given) has a Potency of 0.002 mmol/kg/day.
COC(=O)C(c1ccccc1)C1CCCCN1 (stereo not given) was tested, and the Potency was 0.371 mmol/kg/day.
Molecule Nc1ccc2ccccc2c1 has a Potency of 0.275 mmol/kg/day.
Cc1c(N(C)CS(=O)(=O)O)c(=O)n(-c2ccccc2)n1C showed a Potency of 1.89 mmol/kg/day.

Same assay, conditions: TD50_Mouse_Note: TD50 is harmonic mean of more than one positive test; TargetSites_Mouse_Female: liver; thyroid gland
For CN(C)CCOC(C)(c1ccccc1)c1ccccn1 (stereo not given), the Potency was 0.538 mmol/kg/day.

Same assay, conditions: TD50_Mouse_Note: TD50 is harmonic mean of more than one positive test; TargetSites_Mouse_Female: lung
C=Cc1ccccc1 was tested, and the Potency was 2.02 mmol/kg/day.

Same assay, conditions: TD50_Mouse_Note: TD50 is harmonic mean of more than one positive test; TargetSites_Mouse_Female: lung; nervous system
Molecule CN(C)N=O has a Potency of 0.00255 mmol/kg/day.

Same assay, conditions: TD50_Mouse_Note: TD50 is harmonic mean of more than one positive test; TargetSites_Mouse_Female: lung; stomach
With C=CCN(N)CC=C the Potency was 0.264 mmol/kg/day.

Same assay, conditions: TD50_Mouse_Note: TD50 is harmonic mean of more than one positive test; TargetSites_Mouse_Female: lung; vascular system
CN(C)N was tested, and the Potency was 0.0659 mmol/kg/day.

Same assay, conditions: TD50_Mouse_Note: TD50 is harmonic mean of more than one positive test; TargetSites_Mouse_Female: mammary gland; ovary; pituitary gland; thyroid gland; uterus
In the case of CC/C(=C(/CC)c1ccc(O)cc1)c1ccc(O)cc1, the Potency is reported as 0.000146 mmol/kg/day.

Same assay, conditions: TD50_Mouse_Note: TD50 is harmonic mean of more than one positive test; TargetSites_Mouse_Female: stomach
In the case of CC(C)=CCl, the Potency is reported as 0.165 mmol/kg/day.
O=C1CCO1 gave a Potency of 0.0172 mmol/kg/day.
c1ccc(C2CO2)cc1 (stereo not given) showed a Potency of 0.982 mmol/kg/day.

Same assay, conditions: TD50_Mouse_Note: TD50 is harmonic mean of more than one positive test; TargetSites_Mouse_Female: thyroid gland
Molecule O=c1cc(CO)occ1O has a Potency of 4.63 mmol/kg/day.

Same assay, conditions: TD50_Mouse_Note: TD50 is harmonic mean of more than one positive test; greater than ten-fold variation among TD50 values for positive res; TargetSites_Mouse_Female: liver
COC(=O)C(C)(C)Oc1ccc(-c2ccc(Cl)cc2)cc1 gave a Potency of 0.00824 mmol/kg/day.

Same assay, conditions: TD50_Mouse_Note: TD50 is harmonic mean of more than one positive test; harmonic mean of TD50 includes a value for upper 99% confidence li; TargetSites_Mouse_Female: liver
For Nc1ccc2oc3ccccc3c2c1, the Potency was 0.0231 mmol/kg/day.
Molecule CNc1ccc(N(CCO)CCO)cc1[N+](=O)[O-] has a Potency of 0.338 mmol/kg/day.
C=CCc1ccc2c(c1)OCO2 gave a Potency of 0.316 mmol/kg/day.

Same assay, conditions: TD50_Mouse_Note: no positive results
With CC12CCC(CC1)C(C)(C)O2 the outcome was “inactive; no positive results”.
With C=CC(OC(C)=O)c1ccc2c(c1)OCO2 (stereo not given) the outcome was “inactive; no positive results”.

Same assay, conditions: TD50_Mouse_Note: no positive results are statistically significant; TD50_Mouse_mmol was not calculated for this mixture, but Activiity Sc; TargetSites_Mouse_Female: pituitary gland
For C#C[C@]1(OC(C)=O)CC[C@H]2[C@@H]3CCC4=CC(=O)CC[C@@H]4[C@H]3CC[C@@]21C, the outcome was “active”.

Same assay, conditions: TD50_Mouse_Note: no positive results; TargetSites_Mouse_Female: no positive results
Cc1cc(O)c2c(c1)C(=O)c1cc(O)cc(O)c1C2=O was tested, and the outcome was “inactive; no positive results”.
COC(=O)C1=C(C)NC(C)=C(C(=O)OCCc2ccc(N3CCN(C(c4ccccc4)c4ccccc4)CC3)cc2)C1c1cccc([N+](=O)[O-])c1 (stereo not given) was tested, and the outcome was “inactive; no positive results”.
In the case of ClC1=C(Cl)C2(Cl)C3C(Cl)OC(Cl)C3C1(Cl)C2(Cl)Cl (stereo not given), the outcome is reported as “inactive; no positive results”.
With O=CCCCC=O the outcome was “inactive; no positive results”.
ClCOCCCCOCCl was tested, and the outcome was “inactive”.
With CN(C)C(=O)NC1CC2CC1C1CCCC21 (stereo not given) the outcome was “inactive; no positive results”.
With CNC(=O)CSP(=S)(OC)OC the outcome was “inactive; no positive results”.
In the case of CCN(CC)C(=S)S[Te](SC(=S)N(CC)CC)(SC(=S)N(CC)CC)SC(=S)N(CC)CC, the outcome is reported as “inactive; no positive results”.
Cc1noc(NS(=O)(=O)c2ccc(N)cc2)c1C was tested, and the outcome was “inactive; no positive results”.
CC(C)C=O was tested, and the outcome was “inactive; no positive results”.
For CC(C)Oc1ccc(Nc2ccccc2)cc1, the outcome was “inactive; no positive results”.
In the case of CN(C)C=O, the outcome is reported as “inactive; no positive results”.
In the case of O=S1(=O)CC=CC1, the outcome is reported as “inactive; no positive results”.
In the case of c1ccc2sc(SNC3CCCCC3)nc2c1, the outcome is reported as “inactive; no positive results”.
In the case of CC(C)OC(=O)Nc1ccccc1, the outcome is reported as “inactive; no positive results”.
For CC(=O)Nc1ccc(CC(=O)O)cc1, the outcome was “inactive; no positive results”.
In the case of NC(=O)CCCCC(N)=O, the outcome is reported as “inactive; no positive results”.
With O=C(O)c1ccccc1-c1c2cc(I)c(=O)c(I)c-2oc2c(I)c(O)c(I)cc12 the outcome was “inactive; no positive results”.
In the case of Nc1ccc([N+](=O)[O-])cc1N, the outcome is reported as “inactive; no positive results”.
C=C(C)C(=O)Nc1ccc(Cl)c(Cl)c1 was tested, and the outcome was “inactive; no positive results”.
For CNC(=O)O/N=C/C(C)(C)SC, the outcome was “inactive; no positive results”.
c1ccc2cc(Nc3ccc(Nc4ccc5ccccc5c4)cc3)ccc2c1 was tested, and the outcome was “inactive; no positive results”.
In the case of CCOP(=S)(OCC)Oc1ccc([N+](=O)[O-])cc1, the outcome is reported as “inactive; no positive results”.
With Nc1ccc(N)c(Cl)c1 the outcome was “inactive; no positive results”.
For CCc1ccc(C(c2ccc(CC)cc2)C(Cl)Cl)cc1, the outcome was “inactive; no positive results”.
With CNC(=O)Oc1cccc2c1OC(C)(C)C2 the outcome was “inactive; no positive results”.
C=CCOC(=O)c1ccccc1C(=O)OCC=C was tested, and the outcome was “inactive; no positive results”.
With Oc1ccc(OCc2ccccc2)cc1 the outcome was “inactive; no positive results”.
In the case of NC(=S)NNC(N)=S, the outcome is reported as “inactive; no positive results”.
CNc1ncnc2c1ncn2[C@@H]1O[C@H](CO)[C@@H](O)[C@H]1O was tested, and the outcome was “inactive; no positive results”.
In the case of ClC1=C(Cl)C(Cl)(Cl)C(Cl)=C1Cl, the outcome is reported as “inactive; no positive results”.
CC(=O)OC[C@H]1O[C@H](O[C@]2(COC(C)=O)O[C@H](COC(=O)C(C)C)[C@@H](OC(=O)C(C)C)[C@@H]2OC(=O)C(C)C)[C@H](OC(=O)C(C)C)[C@@H](OC(=O)C(C)C)[C@@H]1OC(=O)C(C)C was tested, and the outcome was “inactive; no positive results”.
In the case of O=[N+]([O-])c1ccc(NCCO)c(OCCO)c1, the outcome is reported as “inactive; no positive results”.
In the case of Cc1cccc(C)c1NC(=O)CN1CCCC1=O, the outcome is reported as “inactive; no positive results”.
For O=C/C=C/c1ccccc1, the outcome was “inactive; no positive results”.
In the case of C/C=C/C=C/C(=O)O, the outcome is reported as “inactive; no positive results”.
In the case of Nc1ccccc1C(=O)O, the outcome is reported as “inactive; no positive results”.
CC[C@H]1OC(=O)[C@H](C)[C@@H](O[C@H]2C[C@@](C)(OC)[C@@H](O)[C@H](C)O2)[C@H](C)[C@@H](O[C@@H]2O[C@H](C)C[C@H](N(C)C)[C@H]2O)[C@](C)(O)C[C@@H](C)C(=O)[C@H](C)[C@@H](O)[C@]1(C)O was tested, and the outcome was “inactive; no positive results”.
Nc1ccc([N+](=O)[O-])cc1O was tested, and the outcome was “inactive; no positive results”.
For CCN(Cc1cccc(S(=O)(=O)O)c1)c1ccc(C(=C2C=CC(=[N+](CC)Cc3cccc(S(=O)(=O)[O-])c3)C=C2)c2ccc(S(=O)(=O)O)cc2)cc1, the outcome was “inactive; no positive results”.
With O=C(O)Cc1cccc2ccccc12 the outcome was “inactive; no positive results”.
For NC(=O)c1ccccc1C(N)=O, the outcome was “inactive; no positive results”.
Cc1ccc(S(=O)(=O)NC(=O)NN2CCCCCC2)cc1 was tested, and the outcome was “inactive; no positive results”.
For Nc1ccc(NC(=O)c2ccc(N)cc2)cc1, the outcome was “inactive; no positive results”.
For CN(N=O)C1=Nc2ccc(Cl)cc2C(c2ccccc2)=[N+]([O-])C1, the outcome was “inactive; no positive results”.
For c1ccc(Nc2ccc3ccccc3c2)cc1, the outcome was “inactive; no positive results”.
Cc1cc(O)c(C(C)(C)C)cc1Sc1cc(C(C)(C)C)c(O)cc1C was tested, and the outcome was “inactive; no positive results”.
In the case of NNC(N)=S, the outcome is reported as “inactive; no positive results”.
In the case of CC(C)=CCC/C(C)=C/C=O, the outcome is reported as “inactive; no positive results”.
With CC#N the outcome was “inactive; no positive results”.
CCNC(=S)NCC was tested, and the outcome was “inactive; no positive results”.

Same assay, conditions: TD50_Mouse_Note: positive test results only by intraperitoneal or intravenous injection; TD50 is harmonic mean of more than one positive; TargetSites_Mouse_Female: hematopoietic system; lung
For O[C@@H]([C@H](O)[C@@H](O)CBr)[C@@H](O)CBr, the Potency was 0.0484 mmol/kg/day.

Same assay, conditions: TargetSites_Mouse_BothSexes: pituitary gland
In the case of CCCc1cc(=O)[nH]c(=S)[nH]1, the Potency is reported as 2.4 mmol/kg/day.

Same assay, conditions: TargetSites_Mouse_Female: esophagus; oral cavity; stomach; uterus
Work on C=COC(C)=O yielded a Potency of 45.5 mmol/kg/day.

Same assay, conditions: TargetSites_Mouse_Female: hematopoietic system
With Nc1nc(-c2ccc([N+](=O)[O-])cc2)cs1 the Potency was 0.045 mmol/kg/day.
NNc1nc(-c2ccc(N)cc2)cs1 was tested, and the Potency was 0.0548 mmol/kg/day.

Same assay, conditions: TargetSites_Mouse_Female: liver
With Cc1ccc2c(c1N)C(=O)c1ccccc1C2=O the Potency was 0.733 mmol/kg/day.
Molecule COc1cc(N=Nc2ccccc2)ccc1N has a Potency of 0.265 mmol/kg/day.
In the case of c1ccc(NNc2ccccc2)cc1, the Potency is reported as 0.141 mmol/kg/day.
Molecule Nc1cc(Cl)cc(C(=O)O)c1Cl has a Potency of 25.4 mmol/kg/day.
CCCCC(CC)CO (stereo not given) gave a Potency of 12.9 mmol/kg/day.
NC(=O)Cc1c([O-])on[n+]1Cc1ccccc1 was tested, and the Potency was 0.0437 mmol/kg/day.

Same assay, conditions: TargetSites_Mouse_Female: no positive results
Work on CCOc1ccc(NC(C)=O)cc1[N+](=O)[O-] yielded a Potency of 10.1 mmol/kg/day.
In the case of OC(c1ccc(Cl)cc1)(c1ccc(Cl)cc1)C(Cl)(Cl)Cl, the Potency is reported as 0.0888 mmol/kg/day.
With COc1c(Cl)c(Cl)c(Cl)c(Cl)c1Cl the Potency was 0.243 mmol/kg/day.
Work on Nc1ccc(O)c(N)c1 yielded a Potency of 0.726 mmol/kg/day.
Molecule O=C(O)[C@@H]1[C@H](C(=O)O)[C@@]2(Cl)C(Cl)=C(Cl)[C@]1(Cl)C2(Cl)Cl has a Potency of 0.363 mmol/kg/day.

Same assay, conditions: TargetSites_Mouse_Female: stomach
Work on CC(=O)Nc1nnc(-c2ccc([N+](=O)[O-])o2)s1 yielded a Potency of 0.0265 mmol/kg/day.

Same assay, conditions: TargetSites_Mouse_Female: urinary bladder; vascular system
Nc1ccc(Oc2ccc(Cl)cc2)cc1 showed a Potency of 1.58 mmol/kg/day.
